Reference: patent US20220193180A1, “AGING PROGRESSION SUPPRESSING AGENT, AND FOOD OR BEVERAGE PRODUCT COMPRISING SAME” (NITTA GELATIN INC., priority 2019, published 2022)
Where no end group is shown, it is not given here. [ ]: non-standard residue; d: D form. Hyp = O=C(O)[C@@H]1C[C@@H](O)CN1

Experiments:
[1] = test system: glutathione synthetase gene; experiment: Gene expression test: mRNA level of glutathione synthetase gene in epidermal cells (RT-PCR, corrected with GAPDH); format: cell-based, human; details: NHEK cells, 1 mM final concentration, 72 hours; for Gene expression increase rate (glutathione synthetase gene): control = 100
Protocol: (§1) First, normal human epidermal keratinocytes NHEK (NB) (manufactured by KURABO INDUSTRIES LTD.) were obtained as epidermal cells. The cells were seeded in a necessary number of commercially available dishes of ϕ60 mm at 1.25×10^4 cells per dish (5 mL of a cell dispersion liquid having a concentration of 0.25×10^4 cells/mL), and cultured in a serum-free medium (trade name: “HuMedia KG-2”, manufactured by KURABO INDUSTRIES LTD.) for 2 days. Then, the cells were confirmed to be subconfluent in the dishes, and the medium in the dishes was then replaced by a basal medium (trade name: “HuMedia KB-2”, manufactured by KURABO INDUSTRIES LTD.). In this way, epidermal cells for evaluating the mRNA level of the type 17 collagen gene and the mRNA level of the glutathione synthetase gene were prepared.
(§2) To the basal medium in the dishes, the peptide or the collagen peptide mixture was added to the concentrations shown in Tables 1 to 4, and the cells were cultured at 37° C. in an atmosphere at a carbon dioxide concentration of 5 vol % for 72 hours to prepare samples to be subjected to a gene expression test. In addition, a control sample obtained by adding only ion-exchanged water to the basal medium in the dish (hereinafter, also referred to as “Blank”) was prepared. This control sample was also cultured at 37° C. in an atmosphere at a carbon dioxide concentration of 5 vol % for 72 hours.
Next, by using a RNA extraction kit (trade name: “TRIzol (registered trademark) Reagent, manufactured by Life Technologies Japan Ltd.) in accordance with the protocol accompanying the kit, total RNA was extracted from the epidermal cells in the dish to obtain an extract containing total RNA for each sample. Subsequently, by using a cDNA preparation kit (trade name (product number): “High Capacity RNA-to-cDNA Kit (4387406)”, manufactured by Life Technologies Japan Ltd.) in accordance with the protocol accompanying the kit, reverse transcription was performed on RNA in the extract to obtain cDNA from the RNA in the extract. […]
In the RT-PCR, the mRNA levels of type 17 collagen (manufactured by Life Technologies Japan Ltd., primer: Hs009900361_ml) as a target gene and glutathione synthetase (GSS, manufactured by Life Technologies Japan Ltd., primer: Hs01547656_ml) were measured. […]
First, in the samples and the control sample, the mRNA levels (gene expression levels) of the two target genes (type 17 collagen and glutathione synthetase) were each calculated. […] Specifically, values obtained by dividing the mRNA levels of the two target genes by the mRNA level of GAPDH (relative values) were each determined.
Then, the ratio of the correction value obtained in each sample to the correction value in the control sample, which was defined as 100, was determined (gene expression increase rate (%)). […]

type 17 collagen gene = experiment: Gene expression test: mRNA level of type 17 collagen gene in epidermal cells (RT-PCR, corrected with GAPDH); format: cell-based, human; design: key to Assessment (promoting action on type 17 collagen gene expression): samples with “++” were determined to have a significance in the promoting action on expression of the gene; In samples with “+”, the gene expression increase rate (%) exceeded 100; Samples with “−” were determined to have no significance in the promoting action on expression of the gene; details: NHEK cells; for Assessment (promoting action on type 17 collagen gene expression) / Gene expression increase rate (type 17 collagen gene): 1 mM final concentration, 72 hours; for Gene expression increase rate (type 17 collagen gene): control = 100
Protocol: as §1, §2
Next, by using a RNA extraction kit (trade name: “TRIzol (registered trademark) Reagent, manufactured by Life Technologies Japan Ltd.) in accordance with the protocol accompanying the kit, total RNA was extracted from the epidermal cells in the dish to obtain an extract containing total RNA for each sample. Subsequently, by using a cDNA preparation kit (trade name (product number): “High Capacity RNA-to-cDNA Kit (4387406)”, manufactured by Life Technologies Japan Ltd.) in accordance with the protocol accompanying the kit, reverse transcription was performed on RNA in the extract to obtain cDNA from the RNA in the extract. Further, real-time (RT)-PCR was performed on the cDNA by a DNA amplifying apparatus (trade name: “Step One Plus (TM) Real-Time PCR System”, manufactured by Applied Biosystems Inc.).
In the RT-PCR, the mRNA levels of type 17 collagen (manufactured by Life Technologies Japan Ltd., primer: Hs009900361_ml) as a target gene and glutathione synthetase (GSS, manufactured by Life Technologies Japan Ltd., primer: Hs01547656_ml) were measured. As an internal standard (correction gene), GAPDH was selected. For calculation of the mRNA level, a calibrated curve method was used. As the primer and the probe for the RT-PCR, those accompanying a reagent kit (trade name: “TaqMan (registered trademark) Gene Expression Assays, manufactured by Applied Biosystems Inc.) were used.
First, in the samples and the control sample, the mRNA levels (gene expression levels) of the two target genes (type 17 collagen and glutathione synthetase) were each calculated. Next, the mRNA levels of the two target genes were corrected with the mRNA level of GAPDH as a correction gene to obtain correction values in the samples and the control sample. Specifically, values obtained by dividing the mRNA levels of the two target genes by the mRNA level of GAPDH (relative values) were each determined.
Then, the ratio of the correction value obtained in each sample to the correction value in the control sample, which was defined as 100, was determined (gene expression increase rate (%)).
Further, the gene expression increase rate (%) was subjected to statistical processing to evaluate significance of the promoting action on gene expression of the type 17 collagen gene and the glutathione synthetase gene in each sample. […]

Gly-Pro [GP]
Assessment (promoting action on glutathione synthetase gene expression) [1]: + (In samples with “+”, the gene expression increase rate (%) exceeded 100) | Gene expression increase rate (glutathione synthetase gene) [1]: 106 ± 2% | Assessment (promoting action on type 17 collagen gene expression) (type 17 collagen gene): ++ | Gene expression increase rate (type 17 collagen gene) (type 17 collagen gene): 201 ± 8.42%

Glu-Hyp [EO, reference compound]
Assessment (promoting action on type 17 collagen gene expression) (type 17 collagen gene): − | Gene expression increase rate (type 17 collagen gene) (type 17 collagen gene): 100 ± 6.46% | promoting action on type 17 collagen gene expression (in words) (type 17 collagen gene; discussion of Table 1): did not exhibit an evident promoting action

Glu-[Hyp]-Gly [EOG]
Assessment (promoting action on glutathione synthetase gene expression) [1]: + (In samples with “+”, the gene expression increase rate (%) exceeded 100) | Gene expression increase rate (glutathione synthetase gene) [1]: 131 ± 10% | Assessment (promoting action on type 17 collagen gene expression) (type 17 collagen gene): + (In samples with “+”, the gene expression increase rate (%) exceeded 100) | Gene expression increase rate (type 17 collagen gene) (type 17 collagen gene): 144 ± 17.01%
